The source of these data is article PMC10924921, “Mi-2β promotes immune evasion in melanoma by activating EZH2 methylation” (Nature Communications, 2024).

The target of series [1] is recombinant purified human Mi-2β protein (Homo sapiens, UniProt Q14839). Nature of the series: FRET-based nucleosome repositioning assay (EpiDyne-FRET). Conditions: read-out: apparent ATP Km; ATP titration 0.1 to 300 µM, 12.5 nM Mi-2β, 15 minutes.
Series [2] concerns BRafV600E/Ptennull melanoma cells with or without Mi-2β. Nature of the series: CCK-8 proliferation after Braf inhibitor. The class given is cell-based, mouse. Conditions: 10 μM, 24 h. The method, then: To test whether Mi-2β deficiency affects the sensitivity of tumor cells to Braf inhibitors, melanoma cells were isolated from Tyr::CreER;BRaf^CA;Pten^lox/lox and Tyr::CreER;BRaf^CA;Pten^lox/lox; Mi-2β^lox/lox mice and a cell proliferation assay was performed. BRAF mutation and Mi-2β-depleted melanoma cells or BRAF mutation melanoma cells (5 × 10^3 cells/100 μl) were cultured with 10 μM PLX4032 (Selleck, China) for 24 h and cell proliferation of melanoma cells were determined using the CCK-8 assay.
Supplementary Figure 2. […] Scale bar=200 µm. b Tumor-infiltrating lymphocytes were assayed by flow cytometry. c Treg cells within CD45+ T cells in TILs were assayed and quantified by flow cytometry.
(n=5). d Melanomas isolated from BRafV600E/Ptennull mice and BRafV600E/Ptennull /Mi-2βnull mice were processed for immunohistochemistry staining to detect the number of CD8+ T cells. […] Melanoma cells isolated from Tyr::CreER;BRafCA;Ptenlox/lox and Tyr::CreER;BRafCA;Ptenlox/lox;Mi-2βlox/lox mice were treated with PLX4032 (10μM) for 24 hours and cell proliferation was determined by CCK-8 assay (n=6). c, e, f: Values represent mean ± SD. […]

In series [3] the test system is PC3 prostate cancer cells. The arrangement: method as in Shubhada Sharma, et al., Biochemistry 2013. Conditions: ref Shubhada Sharma, et al., Biochemistry 2013; read-out: IC50, cytotoxicity; cited from earlier work.
A further series deals with melanoma. Conditions: cited from earlier work.

recombinant purified human Mi-2β protein, sequence (Q14839 whole entry): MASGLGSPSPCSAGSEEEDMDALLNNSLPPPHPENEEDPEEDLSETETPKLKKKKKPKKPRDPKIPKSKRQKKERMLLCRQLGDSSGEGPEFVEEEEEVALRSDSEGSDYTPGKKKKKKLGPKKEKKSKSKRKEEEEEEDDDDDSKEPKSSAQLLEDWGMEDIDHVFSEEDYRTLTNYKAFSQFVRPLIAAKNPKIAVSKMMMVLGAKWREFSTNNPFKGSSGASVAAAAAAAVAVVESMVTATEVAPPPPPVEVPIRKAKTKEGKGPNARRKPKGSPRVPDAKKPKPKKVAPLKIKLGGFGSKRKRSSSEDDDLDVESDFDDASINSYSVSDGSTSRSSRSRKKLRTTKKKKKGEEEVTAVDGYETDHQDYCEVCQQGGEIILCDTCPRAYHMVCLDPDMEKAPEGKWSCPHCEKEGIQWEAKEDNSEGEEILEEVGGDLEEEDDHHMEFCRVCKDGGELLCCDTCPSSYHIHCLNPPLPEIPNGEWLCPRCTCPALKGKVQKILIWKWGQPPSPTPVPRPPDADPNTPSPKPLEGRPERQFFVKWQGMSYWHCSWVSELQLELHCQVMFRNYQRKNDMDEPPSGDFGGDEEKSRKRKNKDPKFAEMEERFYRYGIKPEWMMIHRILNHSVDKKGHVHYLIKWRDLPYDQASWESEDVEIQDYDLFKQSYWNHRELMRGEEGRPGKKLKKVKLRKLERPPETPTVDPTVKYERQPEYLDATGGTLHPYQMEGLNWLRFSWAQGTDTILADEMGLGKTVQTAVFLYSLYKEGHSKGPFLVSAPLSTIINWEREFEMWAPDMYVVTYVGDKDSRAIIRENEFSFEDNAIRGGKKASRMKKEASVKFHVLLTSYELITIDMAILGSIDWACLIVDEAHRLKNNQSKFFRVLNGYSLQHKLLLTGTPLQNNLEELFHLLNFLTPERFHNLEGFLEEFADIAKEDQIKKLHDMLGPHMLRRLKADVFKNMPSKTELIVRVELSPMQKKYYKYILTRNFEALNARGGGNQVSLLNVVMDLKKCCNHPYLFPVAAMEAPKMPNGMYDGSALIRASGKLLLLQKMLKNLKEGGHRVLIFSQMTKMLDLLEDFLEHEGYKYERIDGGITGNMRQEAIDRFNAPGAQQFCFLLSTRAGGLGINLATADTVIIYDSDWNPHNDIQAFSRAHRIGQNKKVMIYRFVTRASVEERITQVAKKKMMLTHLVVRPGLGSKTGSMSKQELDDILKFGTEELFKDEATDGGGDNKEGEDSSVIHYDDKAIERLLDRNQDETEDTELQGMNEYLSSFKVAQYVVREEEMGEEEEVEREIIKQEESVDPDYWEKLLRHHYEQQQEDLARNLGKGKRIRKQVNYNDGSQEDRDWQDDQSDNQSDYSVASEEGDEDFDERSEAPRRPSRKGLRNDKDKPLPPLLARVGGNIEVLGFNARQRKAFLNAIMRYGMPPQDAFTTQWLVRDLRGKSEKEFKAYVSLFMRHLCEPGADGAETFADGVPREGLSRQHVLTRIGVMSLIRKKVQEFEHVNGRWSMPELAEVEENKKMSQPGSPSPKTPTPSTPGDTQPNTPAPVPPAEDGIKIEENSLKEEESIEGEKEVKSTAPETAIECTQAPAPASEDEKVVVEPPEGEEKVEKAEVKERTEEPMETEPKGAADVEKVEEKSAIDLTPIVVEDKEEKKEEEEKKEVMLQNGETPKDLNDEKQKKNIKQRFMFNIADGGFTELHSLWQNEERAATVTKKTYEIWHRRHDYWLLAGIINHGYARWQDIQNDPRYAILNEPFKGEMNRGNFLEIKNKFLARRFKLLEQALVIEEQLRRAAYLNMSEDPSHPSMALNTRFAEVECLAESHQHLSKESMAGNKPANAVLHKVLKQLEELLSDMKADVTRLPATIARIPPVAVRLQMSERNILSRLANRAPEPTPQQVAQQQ

Consider `Nc1ncnc2c1ncn2[C@@H]1O[C@H](COP(=O)(O)OP(=O)(O)OP(=O)(O)O)[C@@H](O)[C@H]1O` [ATP], for which the Km in series [1] amounted to 11.5 µM. For `CCCS(=O)(=O)Nc1ccc(F)c(C(=O)c2c[nH]c3ncc(-c4ccc(Cl)cc4)cc23)c1F` [PLX4032], the “cell survival in melanoma cells with or without Mi-2β expression” value in series [2] is given as “no difference in cell survival”.

Consider `CC(=O)O[C@H]1C(=O)[C@@]2(C)[C@H]([C@H](OC(=O)c3ccccc3)[C@]3(O)C[C@H](OC(=O)[C@H](O)[C@@H](NC(=O)c4ccccc4)c4ccccc4)C(C)=C1C3(C)C)[C@]1(OC(C)=O)CO[C@@H]1C[C@@H]2O` [paclitaxel], for which the concentration for half-maximal inhibition (IC50) in series [3] was 1.41 nM. Consider pembrolizumab: anti-PD-1 antibody, for which the “melanoma patients that respond” value in the series on melanoma is reported as 33%. Consider ipilimumab: anti-CTLA-4 antibody, for which the “melanoma patients that respond” value in the series with melanoma is recorded as 20%.

What is called Km is the concentration of substrate that gives half-maximal velocity. One may read the IC50 as the point on the concentration scale where inhibition reaches its midpoint.
